Values of other authors as cited in PMC6151732, “A New Noncanonical Anionic Peptide That Translocates a Cellular Blood–Brain Barrier Model” (Molecules : A Journal of Synthetic Chemistry and Natural …, 2017).

Test system: brain
Method: Dengue virus type-2 capsid (DEN2C) protein-derived membrane-active peptides have been thoroughly studied by our group. […] An additional study was performed using the four α-helical domains of the DEN2C protein (α1, α2, α3 and α4) to identify trans-BBB peptides. […] PepH3, a hydrophobic peptide, is able to transcytose across the cell, while other peptides accumulate inside the endothelial membrane ...

AGILKRW [PepH3]
Brain uptake: high brain uptake
